The results in this text go back to US12441733B2, “Substituted 2,4-dioxotetrahydropyrimidines as intermediates in the synthesis of bruton's tyrosine kinase inhibitors” (Novartis AG, priority 2018, dated 2025).

The assay has as its target T1, BTK-GFP (Homo sapiens, UniProt Q06187+Q96SW2).
T1 construct: expressed in transfected cells; host or cells: HEK293A (Invitrogen R70507), lentiviral transduction with pLenti6-BTK-GFP-Ires-RFP, blasticidin selection
Description: BTK-GFP protein abundance flow cytometry assay in HEK293A cells. Type of assay: cell-based. As to conditions: HEK293A BTK-GFP-iresRFP cells, 24 h; for DC50: GFP signal by flow cytometry, concentration at which 50% maximal degradation was observed; for BTK deg Amax: % protein remaining at the concentration at which maximum degradation is seen. The essentials:
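HEK293A cells stably expressing bicistronic BTK-GFP-IRES-RFP (C-terminal GFP tag) via lentiviral vector. Degradation read by flow cytometry as loss of GFP signal after degrader treatment. DC50 is concentration giving 50% maximal degradation; Amax is % protein remaining at maximal degradation.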
In general terms: In flow cytometry, cells or beads pass a laser one at a time.

T1 sequence (Q06187 whole entry): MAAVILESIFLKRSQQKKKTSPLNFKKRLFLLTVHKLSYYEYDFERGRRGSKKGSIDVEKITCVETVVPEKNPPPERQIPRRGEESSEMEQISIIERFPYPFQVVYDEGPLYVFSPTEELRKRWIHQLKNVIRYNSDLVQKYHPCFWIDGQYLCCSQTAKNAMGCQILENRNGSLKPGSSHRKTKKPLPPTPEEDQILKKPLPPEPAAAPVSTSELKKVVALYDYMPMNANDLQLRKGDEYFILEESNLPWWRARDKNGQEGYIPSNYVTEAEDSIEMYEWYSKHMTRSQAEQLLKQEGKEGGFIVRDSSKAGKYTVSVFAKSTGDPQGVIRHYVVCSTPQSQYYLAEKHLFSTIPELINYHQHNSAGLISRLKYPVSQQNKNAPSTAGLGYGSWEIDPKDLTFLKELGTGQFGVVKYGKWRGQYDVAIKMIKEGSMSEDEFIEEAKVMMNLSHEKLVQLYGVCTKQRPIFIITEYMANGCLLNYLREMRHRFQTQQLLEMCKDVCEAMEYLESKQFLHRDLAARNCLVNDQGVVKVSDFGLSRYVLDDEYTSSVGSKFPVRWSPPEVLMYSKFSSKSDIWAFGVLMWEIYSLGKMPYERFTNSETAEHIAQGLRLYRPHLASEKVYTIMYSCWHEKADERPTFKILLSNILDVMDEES
T1 sequence (Q96SW2 whole entry): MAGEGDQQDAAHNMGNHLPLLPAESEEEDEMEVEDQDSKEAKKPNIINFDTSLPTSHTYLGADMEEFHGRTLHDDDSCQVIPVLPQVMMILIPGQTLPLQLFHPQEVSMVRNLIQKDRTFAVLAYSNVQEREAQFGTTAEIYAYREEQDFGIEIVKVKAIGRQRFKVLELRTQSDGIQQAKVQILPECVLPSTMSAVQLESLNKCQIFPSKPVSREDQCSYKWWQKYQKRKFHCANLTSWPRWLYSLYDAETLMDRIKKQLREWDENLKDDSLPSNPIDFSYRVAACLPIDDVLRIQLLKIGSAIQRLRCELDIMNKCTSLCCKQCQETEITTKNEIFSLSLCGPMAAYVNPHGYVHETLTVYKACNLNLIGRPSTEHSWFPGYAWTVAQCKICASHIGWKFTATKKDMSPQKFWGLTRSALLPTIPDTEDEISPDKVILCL
T1 sequence (Q16531 whole entry partner): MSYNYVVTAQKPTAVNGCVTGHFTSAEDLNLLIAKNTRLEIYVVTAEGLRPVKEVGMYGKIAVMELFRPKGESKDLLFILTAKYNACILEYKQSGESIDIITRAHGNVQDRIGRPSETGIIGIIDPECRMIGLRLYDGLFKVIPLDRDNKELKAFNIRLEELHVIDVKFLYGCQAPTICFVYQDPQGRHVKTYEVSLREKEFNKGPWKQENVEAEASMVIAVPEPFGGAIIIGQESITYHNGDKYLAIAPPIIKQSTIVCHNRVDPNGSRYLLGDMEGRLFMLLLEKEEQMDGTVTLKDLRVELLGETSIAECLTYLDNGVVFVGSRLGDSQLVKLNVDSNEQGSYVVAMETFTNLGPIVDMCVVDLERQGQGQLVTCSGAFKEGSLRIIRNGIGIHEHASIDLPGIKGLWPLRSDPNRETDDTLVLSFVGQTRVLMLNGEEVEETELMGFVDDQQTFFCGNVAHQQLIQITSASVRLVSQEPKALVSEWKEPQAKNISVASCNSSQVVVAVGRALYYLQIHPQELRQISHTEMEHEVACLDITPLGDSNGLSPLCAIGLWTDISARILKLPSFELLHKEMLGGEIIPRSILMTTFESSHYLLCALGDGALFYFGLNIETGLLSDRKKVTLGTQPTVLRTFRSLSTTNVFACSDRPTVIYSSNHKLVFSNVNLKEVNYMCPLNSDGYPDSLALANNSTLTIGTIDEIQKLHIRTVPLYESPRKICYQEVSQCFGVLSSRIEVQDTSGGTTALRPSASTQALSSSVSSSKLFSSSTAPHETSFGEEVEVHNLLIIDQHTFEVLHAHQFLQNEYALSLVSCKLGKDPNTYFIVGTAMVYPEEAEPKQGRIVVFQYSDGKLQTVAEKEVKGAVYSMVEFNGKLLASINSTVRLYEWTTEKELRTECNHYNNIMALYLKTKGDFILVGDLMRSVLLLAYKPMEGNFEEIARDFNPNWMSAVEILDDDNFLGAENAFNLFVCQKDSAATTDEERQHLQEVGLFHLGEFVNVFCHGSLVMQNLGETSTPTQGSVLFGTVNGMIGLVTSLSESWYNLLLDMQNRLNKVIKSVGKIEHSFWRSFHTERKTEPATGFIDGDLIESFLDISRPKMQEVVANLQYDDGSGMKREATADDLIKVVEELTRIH

In general, DC50 refers to the concentration at which degradation of the target reaches its halfway point. High values mean degradation only at high concentration, low ones degradation at low concentration. Consider `CCOc1ccc(C(=O)N2CCC3(CCN(Cc4ccc(-c5cc6c(-c7cc(F)cc(NC(=O)c8ccc(C(C)(C)O)cc8F)c7C)ncnc6[nH]5)cc4)CC3)CC2)cc1N1CCC(=O)NC1=O` [Compound 4, N-(3-(6-(4-((9-(3-(2,4-Dioxotetrahydropyrimidin-1(2H)-yl)-4-ethoxybenzoyl)-3,9-diazaspiro[5.5]undecan-3-yl)methyl)phenyl)-7H-pyrrolo[2,3-d]pyrimidin-4-yl)-5-fluoro-2-methylphenyl)-2-fluoro-4-(2-hydroxypropan-2-yl)benzamide], for which it took 3.7 nM to reach half-maximal degradation (DC50) and the “BTK deg Amax” value worked out at 7.8%.

As for `Cc1ccc(C(=O)N2CCC3(CCN(CCc4ccc(-c5cc6c(-c7cc(F)cc(NC(=O)c8ccc(C(C)(C)O)cc8F)c7C)ncnc6[nH]5)cc4)CC3)CC2)cc1N1CCC(=O)NC1=O` [Compound 5, N-(3-(6-(4-(2-(9-(3-(2,4-Dioxotetrahydropyrimidin-1(2H)-yl)-4-methylbenzoyl)-3,9-diazaspiro[5.5]undecan-3-yl)ethyl)phenyl)-7H-pyrrolo[2,3-d]pyrimidin-4-yl)-5-fluoro-2-methylphenyl)-2-fluoro-4-(2-hydroxypropan-2-yl)benzamide], half-maximal degradation (DC50) was put at 1 nM and the “BTK deg Amax” value is 3.1%.

For the compound `Cc1c(NC(=O)c2ccc(C(C)(C)O)cc2F)cc(F)cc1-c1ncnc2[nH]c(-c3ccc(COC4CCN(CCC5CCN(C(=O)c6ccc(F)c(N7CCC(=O)NC7=O)c6)CC5)CC4)cc3)cc12` [Compound 6, N-(3-(6-(4-(((1-(2(1-(3-(2,4-dioxotetrahydropyrimidin-1(2H)-yl)-4-fluorobenzoyl)piperidin-4-yl)ethyl)piperidin-4-yl)oxyl)methyl)phenyl)-7H-pyrrolo[2,3-d]pyrimidin-4-yl)-5-fluoro-2-methylphenyl)-2-fluoro-4-(2-hydroxypropan-2-yl)benzamide], the half-maximal degradation concentration (DC50) came to 0.7 nM and the “BTK deg Amax” value is on record as 4.1%.

In the case of `COc1ccc(C(=O)N2CCC(OC3CCN(Cc4ccc(-c5cc6c(-c7cc(F)cc(NC(=O)c8ccc(C(C)(C)O)cc8F)c7C)ncnc6[nH]5)cc4)CC3)CC2)cc1N1CCC(=O)NC1=O` [Compound 8, N-(3-(6-(4-((4-((1-(3-(2,4-dioxotetrahydropyrimidin-1(2H)-yl)-4-methoxybenzoyl)piperidin-4-yl)oxyl)piperidin-1-yl)methyl)phenyl)-7H-pyrrolo[2,3-d]pyrimidin-4-yl)-5-fluoro-2-methylphenyl)-2-fluoro-4-(2-hydroxypropan-2-yl)benzamide], it took 2.6 nM to reach half-maximal degradation (DC50) and the “BTK deg Amax” value is 5.5%.

For `COc1ccc(C(=O)N2CCC3(CCN(Cc4ccc(-c5cc6c(-c7cc(F)cc(NC(=O)c8ccc(C(C)(C)O)cc8F)c7C)ncnc6[nH]5)cc4)CC3)CC2)cc1N1CCC(=O)NC1=O` [Compound 9, N-(3-(6-(4-((9-(3-(2,4-Dioxotetrahydropyrimidin-1(2H)-yl)-4-methoxybenzoyl)-3,9-diazaspiro[5.5]undecan-3-yl)methyl)phenyl)-7H-pyrrolo[2.3-d]pyrimidin-4-yl)-5-fluoro-2-methylphenyl)-2-fluoro-4-(2-hydroxypropan-2-yl)benzamide], it took 2.1 nM to reach half-maximal degradation (DC50) and the “BTK deg Amax” value is given as 4.5%.

As to `Cc1c(NC(=O)c2ccc(C(C)(C)O)cc2F)cc(F)cc1-c1ncnc2[nH]c(-c3ccc(CCN4CCC5(CC4)CCN(C(=O)c4cccc(N6CCC(=O)NC6=O)c4)CC5)cc3)cc12` [Compound 12, N-(3-(6-(4-(2-(9-(3-(2,4-Dioxotetrahydropyrimidin-1(2H)-yl)benzoyl)-3,9-diazaspiro[5,5]undecan-3-yl)ethyl)phenyl)-7H-pyrrolo[2,3-d]pyrimidin-4-yl)-5-fluoro-2-methylphenyl)-2-fluoro-4-(2-hydroxypropan-2-yl)benzamide], half-maximal degradation (DC50) was put at 29.9 nM and the “BTK deg Amax” value was found to be 40.6%.

As for `Cc1c(NC(=O)c2ccc(C(C)(C)O)cc2F)cc(F)cc1-c1ncnc2[nH]c(-c3ccc(CN4CCC5(CC4)CCN(C(=O)c4ccc(F)c(N6CCC(=O)NC6=O)c4)CC5)cc3)cc12` [Compound 14, N-(3-(6-(4-((9-(3-(2,4-Dioxotetrahydropyrimidin-1(2H)-yl)-4-fluorobenzoyl)-3,9-diazaspiro[5.5]undecan-3-yl)methyl)phenyl)-7H-pyrrolo[2.3-d]pyrimidin-4-yl)-5-fluoro-2-methylphenyl)-2-fluoro-4-(2-hydroxypropan-2-yl)benzamide], it took 3.8 nM to reach half-maximal degradation (DC50) and the “BTK deg Amax” value is reported as 11.7%.

Consider `COc1ccc(C(=O)N2CCC(CN3CCC(Oc4ccc(-c5cc6c(-c7cc(F)cc(NC(=O)c8ccc(C(C)(C)O)cc8F)c7C)ncnc6[nH]5)cc4)CC3)CC2)cc1N1CCC(=O)NC1=O` [Compound 19, N-(3-(6-(4-((1-((1-(3-(2,4-Dioxotetrahydropyrimidin-1(2H)-yl)-4-methoxybenzoyl)piperidin-4-yl)methyl)piperidin-4-yl)oxyl)phenyl)-7H-pyrrolo[2,3-d]pyrimidin-4-yl)-5-fluoro-2-methylphenyl)-2-fluoro-4-(2-hydroxypropan-2-yl)benzamide], for which the DC50 was found to be 0.6 nM and the “BTK deg Amax” value amounted to 2.7%.

On to `COc1ccc(C(=O)N2CCC3(CC2)CCN(C(C)(C)Cc2ccc(-c4cc5c(-c6cc(F)cc(NC(=O)c7ccc(C(C)(C)O)cc7F)c6C)ncnc5[nH]4)cc2)CC3)cc1N1CCC(=O)NC1=O` [Compound 20, N-(3-(6-(4-(2-(9-(3-(2,4-Dioxotetrahydropyrimidin-1(2H)-yl)-4-methoxybenzoyl)-3,9-diazaspiro[5.5]undecan-3-yl)-2-methylpropyl)phenyl)-7H-pyrrolo[2,3-d]pyrimidin-4-yl)-5-fluoro-2-methylphenyl)-2-fluoro-4-(2-hydroxypropan-2-yl)benzamide], for which half-maximal degradation (DC50) was put at 2 nM and the “BTK deg Amax” value amounted to 1.1%.

As to `COc1ccc(C(=O)N2CCN(C(=O)N3CCN(Cc4ccc(-c5cc6c(-c7cc(F)cc(NC(=O)c8ccc(C(C)(C)O)cc8F)c7C)ncnc6[nH]5)cc4)CC3)CC2)cc1N1CCC(=O)NC1=O` [Compound 22, N-(3-(6-(4-((4-(4-(3-(2,4-Dioxotetrahydropyrimidin-1(2H)-yl)-4-methoxybenzoyl)piperazine-1-carbonyl)piperazin-1-yl)methyl)phenyl)-7H-pyrrolo[2,3-d]pyrimidin-4-yl)-5-fluoro-2-methylphenyl)-2-fluoro-4-(2-hydroxypropan-2-yl)benzamide], the half-maximal degradation concentration (DC50) worked out at 23.7 nM and the “BTK deg Amax” value is 6.5%.

As to `Cc1ccc(C(=O)N2CCC3(CCN(Cc4ccc(-c5cc6c(-c7cc(F)cc(NC(=O)c8ccc(C(C)(C)O)cc8F)c7C)ncnc6[nH]5)cc4)CC3)CC2)cc1N1CCC(=O)NC1=O` [Compound 27, N-(3-(6-(4-((9-(3-(2,4-Dioxotetrahydropyrimidin-1(2H)-yl)-4-methylbenzoyl)-3,9-diazaspiro[5.5]undecan-3-yl)methyl)phenyl)-7H-pyrrolo[2,3-d]pyrimidin-4-yl)-5-fluoro-2-methylphenyl)-2-fluoro-4-(2-hydroxypropan-2-yl)benzamide], the DC50 is 1.5 nM and the “BTK deg Amax” value amounted to 4.1%.

In the case of `Cc1cc(F)c(C(=O)NCCCCCNCc2ccc(-c3cc4c(-c5cc(F)cc(NC(=O)c6ccc(C(C)(C)O)cc6F)c5C)ncnc4[nH]3)cc2)cc1N1CCC(=O)NC1=O` [Compound 29, 5-(2,4-Dioxotetrahydropyrimidin-1(2H)-yl)-2-fluoro-N—(S-((4-(4-(5-fluoro-3-(2-fluoro-4-(2-hydroxypropan-2-yl)benzamido)-2-methylphenyl)-7H-pyrrolo[2,3-d]pyrimidin-6-yl)benzyl)amino)pentyl)-4-methylbenzamide], half-maximal degradation (DC50) was put at 19.9 nM and the “BTK deg Amax” value is reported as 3.1%.

As to `Cc1ccc(C(=O)N(C)CCCCCNCc2ccc(-c3cc4c(-c5cc(F)cc(NC(=O)c6ccc(C(C)(C)O)cc6F)c5C)ncnc4[nH]3)cc2)cc1N1CCC(=O)NC1=O` [Compound 30, 3-(2,4-Dioxotetrahydropyrimidin-1(2H)-yl)-N-(5-((4-(4-(5-fluoro-3-(2-fluoro-4-(2-hydroxypropan-2-yl)benzamido)-2-methylphenyl)-7H-pyrrolo[2,3-d]pyrimidin-6-yl)benzyl)amino)pentyl)-N,4-dimethylbenzamide], it took 47.1 nM to reach half-maximal degradation (DC50) and the “BTK deg Amax” value worked out at 5.4%.

Regarding `COc1ccc(C(=O)N2CCC3(CCN(CCc4ccc(-c5cc6c(-c7cc(F)cc(NC(=O)c8ccc(C(C)(C)O)cc8F)c7C)ncnc6[nH]5)cc4)CC3)CC2)cc1N1CCC(=O)NC1=O` [Compound 31, N-(3-(6-(4-(2-(9-(3-(2,4-Dioxotetrahydropyrimidin-1(2H)-yl)-4-methoxybenzoyl)-3,9-diazaspiro[5.5]undecan-3-yl)ethyl)phenyl)-7H-pyrrolo[2,3-d]pyrimidin-4-yl)-5-fluoro-2-methylphenyl)-2-fluoro-4-(2-hydroxypropan-2-yl)benzamide], the half-maximal degradation concentration (DC50) is 2.5 nM and the “BTK deg Amax” value came to 3.4%.

As for `COc1ccc(C(=O)N2CCC(OC3CCN(CCc4ccc(-c5cc6c(-c7cc(F)cc(NC(=O)c8ccc(C(C)(C)O)cc8F)c7C)ncnc6[nH]5)cc4)CC3)CC2)cc1N1CCC(=O)NC1=O` [Compound 34, N-(3-(6-(4-(2-(4-((1-(3-(2,4-Dioxotetrahydropyrimidin-1(2H)-yl)-4-methoxybenzoyl)piperidin-4-yl)oxyl)piperidin-1-yl)ethyl)phenyl)-7H-pyrrolo[2,3-d]pyrimidin-4-yl)-5-fluoro-2-methylphenyl)-2-fluoro-4-(2-hydroxypropan-2-yl)benzamide], the half-maximal degradation concentration (DC50) amounted to 3.9 nM and the “BTK deg Amax” value amounted to 1.7%.
